Measurements as given in US12110305B2, “Prodrugs of phosphonamide nucleotide analogues and their pharmaceutical use” (priority 2020, dated 2024).

Tested on: HIV-1 (IIIB)
Experiment: Antiviral (HIV) assay in MT-4 cells
Type: cell-based
Settings: Human immunodeficiency virus 1, MT4, 120 h; HIV-1 IIIB in MT-4 cells, 5 days incubation, Cell Titer Glo; average of at least two independent experiments
Method: Example 104: Antiviral (HIV) Assay in MT-4 Cells
Compounds were tested in a high-throughput 384-well assay format for their ability to inhibit the replication of HIV-1 (IIIB) in MT-4 cells. Compounds were serially diluted (1:3) in DMSO on 384-well polypropylene plates and further diluted 200-fold into complete RPMI media (10% FBS, 1% P/S) using the Biotek Micro Flow and Labcyte ECHO acoustic dispenser. Each plate contained up to 8 test compounds, with negative (no drug) and positive (5 μM AZT) controls. MT-4 cells were pre-treated with 10 μL of either RPMI (mock-infected) or a fresh 1:250 dilution of HIV-1 IIIB concentrated virus stock. Infected and uninfected MT-4 cells were further diluted in complete RPMI media and added to each plate using a Micro Flow dispenser. After 5 days incubation in a humidified and temperature-controlled incubator (37° C.), Cell Titer Glo (Promega) was added to the assay plates and chemiluminescence read using an Envision plate-reader. EC50 values were defined as the compound concentration that causes a 50% decrease in luminescence signal and were calculated using a sigmoidal dose-response model to generate curve fits and are shown in Table 1.

| SMILES | EC50 |
| --- | --- |
| CCCCCCCCCCCC(=O)Nc1ncnc2c1ncn2C[C@@H](C)OCP(=O)(NC(C)(C)C(=O)OCCCCCC)NC(C)(C)C(=O)OCCCCCC [Example 30, Dihexyl 2,2′-(((((1-(6-dodecanamido-9H-purin-9-yl)propan-2-yl)oxy)methyl)phosphoryl)bis(azanediyl))(R)-bis(2-methylpropanoate)] | 68 nM |
| CCCCCCOC(=O)C(C)(C)NP(=O)(CO[C@H](C)Cn1cnc2c(NC(=O)OCCC)ncnc21)NC(C)(C)C(=O)OCCCCCC [Example 31, Dihexyl 2,2′-(((((1-(6-((propoxycarbonyl)amino)-9H-purin-9-yl)propan-2-yl)oxy)methyl)phosphoryl)bis(azanediyl))(R)-bis(2-methylpropanoate)] | > 500 nM |
| CCCCCCOC(=O)C(C)(C)NP(=O)(CO[C@H](C)Cn1cnc2c(NC(=O)OCCCCC)ncnc21)NC(C)(C)C(=O)OCCCCCC [Example 32, Dihexyl 2,2′-(((((1-(6-(((pentyloxy)carbonyl)amino)-9H-purin-9-yl)propan-2-yl)oxy)methyl)phosphoryl)bis(azanediyl))(R)-bis(2-methylpropanoate)] | > 500 nM |
| CCCCCCOC(=O)C(C)(C)NP(=O)(CO[C@H](C)Cn1cnc2c(NC(=O)OCc3oc(=O)oc3C)ncnc21)NC(C)(C)C(=O)OCCCCCC [Example 33, Dihexyl 2,2′-(((((1-(6-((((5-methyl-2-oxo-1,3-dioxol-4-yl)methoxy)carbonyl)amino)-9H-purin-9-yl)propan-2-yl)oxy)methyl)phosphoryl)bis(azanediyl))(R)-bis(2-methylpropanoate)] | 7 nM |
| C[C@H](Cn1cnc2c(N)ncnc21)OCP(=O)(NC(C)(C)C(=O)OC1CCCC1)NC(C)(C)C(=O)OC1CCCC1 [Example 34, Dicyclopentyl 2,2′-(((((1-(6-amino-9H-purin-9-yl)propan-2-yl)oxy)methyl)phosphoryl)bis(azanediyl))(R)-bis(2-methylpropanoate)] | 3 nM |
| CC(C)COC(=O)C(C)(C)NP(=O)(CO[C@H](C)Cn1cnc2c(N)ncnc21)NC(C)(C)C(=O)OCC(C)C [Example 35, Diisobutyl 2,2′-(((((1-(6-amino-9H-purin-9-yl)propan-2-yl)oxy)methyl)phosphoryl)bis(azanediyl))(R)-bis(2-methylpropanoate)] | 5 nM |
| CCCOC(=O)C(C)(C)NP(=O)(CO[C@H](C)Cn1cnc2c(N)ncnc21)NC(C)(C)C(=O)OCCC [Example 36, Dipropyl 2,2′-(((((1-(6-amino-9H-purin-9-yl)propan-2-yl)oxy)methyl)phosphoryl)bis(azanediyl))(R)-bis(2-methylpropanoate)] | 14 nM |
| C[C@H](Cn1cnc2c(N)ncnc21)OCP(=O)(NC(C)(C)C(=O)OCC1CCC1)NC(C)(C)C(=O)OCC1CCC1 [Example 37, Bis(cyclobutylmethyl) 2,2′-(((((1-(6-amino-9H-purin-9-yl)propan-2-yl)oxy)methyl)phosphoryl)bis(azanediyl))(R)-bis(2-methylpropanoate)] | 4 nM |
| CCCCOC(=O)C(C)(C)NP(=O)(CO[C@H](C)Cn1cnc2c(N)ncnc21)NC(C)(C)C(=O)OCCCC [Example 38, Dibutyl 2,2′-(((((1-(6-amino-9H-purin-9-yl)propan-2-yl)oxy)methyl)phosphoryl)bis(azanediyl))(R)-bis(2-methylpropanoate)] | 10 nM |
| CCCCCCCCOC(=O)C(C)(C)NP(=O)(CO[C@H](C)Cn1cnc2c(N)ncnc21)NC(C)(C)C(=O)OCCCCCCCC [Example 39, Dioctyl 2,2′-(((((1-(6-amino-9H-purin-9-yl)propan-2-yl)oxy)methyl)phosphoryl)bis(azanediyl))(R)-bis(2-methylpropanoate)] | 24 nM |
| C[C@H](Cn1cnc2c(N)ncnc21)OCP(=O)(NC(C)(C)C(=O)OC1CCCCC1)NC(C)(C)C(=O)OC1CCCCC1 [Example 40, Dicyclohexyl 2,2′-(((((1-(6-amino-9H-purin-9-yl)propan-2-yl)oxy)methyl)phosphoryl)bis(azanediyl))(R)-bis(2-methylpropanoate)] | 6 nM |
| C[C@H](Cn1cnc2c(N)ncnc21)OCP(=O)(NC(C)(C)C(=O)OC1CC2(CCC2)C1)NC(C)(C)C(=O)OC1CC2(CCC2)C1 (stereo partly drawn) [Example 41, Di(spiro[3.3]heptan-2-yl) 2,2′-(((((1-(6-amino-9H-purin-9-yl)propan-2-yl)oxy)methyl)phosphoryl)bis(azanediyl))(R)-bis(2-methylpropanoate)] | 3 nM |
| C[C@H](Cn1cnc2c(N)ncnc21)OCP(=O)(NC(C)(C)C(=O)OC1CC(C)(C)C1)NC(C)(C)C(=O)OC1CC(C)(C)C1 [Example 42, Bis(3,3-dimethylcyclobutyl) 2,2′-(((((1-(6-amino-9H-purin-9-yl)propan-2-yl)oxy)methyl)phosphoryl)bis(azanediyl))(R)-bis(2-methylpropanoate)] | 2 nM |
| CC(C)OC(=O)C(C)(C)NP(=O)(CO[C@H](C)Cn1cnc2c(N)ncnc21)NC(C)(C)C(=O)OC(C)C [Example 43, Diisopropyl 2,2′-(((((1-(6-amino-9H-purin-9-yl)propan-2-yl)oxy)methyl)phosphoryl)bis(azanediyl))(R)-bis(2-methylpropanoate)] | 20 nM |
| C[C@H](Cn1cnc2c(N)ncnc21)OCP(=O)(NC(C)(C)C(=O)OC1CCC(C)(C)CC1)NC(C)(C)C(=O)OC1CCC(C)(C)CC1 [Example 44, Bis(4,4-dimethylcyclohexyl) 2,2′-(((((1-(6-amino-9H-purin-9-yl)propan-2-yl)oxy)methyl)phosphoryl)bis(azanediyl))(R)-bis(2-methylpropanoate)] | 7 nM |
| C[C@H](Cn1cnc2c(N)ncnc21)OCP(=O)(NC(C)(C)C(=O)OCC1CCCC1)NC(C)(C)C(=O)OCC1CCCC1 [Example 45, Bis(cyclopentylmethyl) 2,2′-(((((1-(6-amino-9H-purin-9-yl)propan-2-yl)oxy)methyl)phosphoryl)bis(azanediyl))(R)-bis(2-methylpropanoate)] | 3 nM |
| C[C@H](Cn1cnc2c(N)ncnc21)OCP(=O)(NC(C)(C)C(=O)OCC1CCCCC1)NC(C)(C)C(=O)OCC1CCCCC1 [Example 46, Bis(cyclohexylmethyl) 2,2′-(((((1-(6-amino-9H-purin-9-yl)propan-2-yl)oxy)methyl)phosphoryl)bis(azanediyl))(R)-bis(2-methylpropanoate)] | 5 nM |
| C[C@H](Cn1cnc2c(N)ncnc21)OCP(=O)(NC(C)(C)C(=O)OC1CCC1)NC(C)(C)C(=O)OC1CCC1 [Example 47, Dicyclobutyl 2,2′-(((((1-(6-amino-9H-purin-9-yl)propan-2-yl)oxy)methyl)phosphoryl)bis(azanediyl))(R)-bis(2-methylpropanoate)] | 7 nM |
| C[C@H](Cn1cnc2c(N)ncnc21)OCP(=O)(NC(C)(C)C(=O)OCC12CCC(CC1)CC2)NC(C)(C)C(=O)OCC12CCC(CC1)CC2 [Example 48, Bis(bicyclo[2.2.2]octan-1-ylmethyl) 2,2′-(((((1-(6-amino-9H-purin-9-yl)propan-2-yl)oxy)methyl)phosphoryl)bis(azanediyl))(R)-bis(2-methylpropanoate)] | 6 nM |
| CCC1(CC)CC(OC(=O)C(C)(C)NP(=O)(CO[C@H](C)Cn2cnc3c(N)ncnc32)NC(C)(C)C(=O)OC2CC(CC)(CC)C2)C1 [Example 49, Bis(3,3-diethylcyclobutyl) 2,2′-(((((1-(6-amino-9H-purin-9-yl)propan-2-yl)oxy)methyl)phosphoryl)bis(azanediyl))(R)-bis(2-methylpropanoate)] | 5 nM |
| C[C@H](Cn1cnc2c(N)ncnc21)OCP(=O)(NC(C)(C)C(=O)OCC1CC2(CCC2)C1)NC(C)(C)C(=O)OCC1CC2(CCC2)C1 (stereo partly drawn) [Example 50, Bis(spiro[3.3]heptan-2-ylmethyl) 2,2′-(((((1-(6-amino-9H-purin-9-yl)propan-2-yl)oxy)methyl)phosphoryl)bis(azanediyl))(R)-bis(2-methylpropanoate)] | 7 nM |
| C[C@H](Cn1cnc2c(N)ncnc21)OCP(=O)(NC(C)(C)C(=O)O[C@H]1C[C@@H](C(C)(C)C)C1)NC(C)(C)C(=O)O[C@H]1C[C@@H](C(C)(C)C)C1 [Example 51, Bis((1S,3S)-3-(tert-butyl)cyclobutyl) 2,2′-((((((R)-1-(6-amino-9H-purin-9-yl)propan-2-yl)oxy)methyl)phosphoryl)bis(azanediyl))bis(2-methylpropanoate)] | 8 nM |
| C[C@H](Cn1cnc2c(N)ncnc21)OCP(=O)(NC(C)(C)C(=O)O[C@H]1C[C@H](C(C)(C)C)C1)NC(C)(C)C(=O)O[C@H]1C[C@H](C(C)(C)C)C1 [Example 52, Bis((1R,3R)-3-(tert-butyl)cyclobutyl) 2,2′-((((((R)-1-(6-amino-9H-purin-9-yl)propan-2-yl)oxy)methyl)phosphoryl)bis(azanediyl))bis(2-methylpropanoate)] | 8 nM |
| C[C@H](Cn1cnc2c(N)ncnc21)OCP(=O)(NC(C)(C)C(=O)OCC1CCC2(CCC2)CC1)NC(C)(C)C(=O)OCC1CCC2(CCC2)CC1 (stereo partly drawn) [Example 53, Bis(spiro[3.5]nonan-7-ylmethyl) 2,2′-(((((1-(6-amino-9H-purin-9-yl)propan-2-yl)oxy)methyl)phosphoryl)bis(azanediyl))(R)-bis(2-methylpropanoate)] | 6 nM |
| CCC(C)(C)CCOC(=O)C(C)(C)NP(=O)(CO[C@H](C)Cn1cnc2c(N)ncnc21)NC(C)(C)C(=O)OCCC(C)(C)CC [Example 54, Bis(3,3-dimethylpentyl) 2,2′-(((((1-(6-amino-9H-purin-9-yl)propan-2-yl)oxy)methyl)phosphoryl)bis(azanediyl))(R)-bis(2-methylpropanoate)] | 4 nM |
